According to US20100305215A1, “DERMAL REGENERATION ENHANCER” (JAPAN SCIENCE AND TECHNOLOGY AGENCY, priority 2005, published 2010):

Test system: skin of colored guinea pigs having melanin pigment-producing cells
Assay: Dermal regeneration enhancing action of liquid crystal versus its constituting components on guinea pig skin (Example 4)
Type: in vivo, guinea pigs (Weiser Maples)
Conditions: 30 mg on 2 cm×2 cm shaved back; each sample solely applied
Description: Back of colored guinea pigs having melanin pigment-producing cells (Weiser Maples; six weeks age; male) was shaved, the shaved part was washed with lukewarm water and 30 mg of the above lyotropic liquid crystal was applied to an area of 2 cm×5 cm thereof. After 2 days from the application date under irradiation with any of UVA, UVB and UVA+UVB, skin of the part to which the lyotropic liquid crystal was applied was collected and the slice was fixed with formalin, embedded in paraffin and stained by a Fontana-Masson method where melanin pigment was stained out in black to evaluate the dermal regeneration enhancing action.
Back of colored guinea pigs having melanin pigment-producing cells (Weiser Maples, five weeks age, male) was shaved, the shaved part was washed with lukewarm water, each 30 mg of the four kinds of samples of the lyotropic crystal of (A) of Example 1 and the constituting components thereof—surfactant, oil and polyhydric alcohol—was applied to an area of 2 cm×2 cm thereof and the dermal regeneration enhancing action was evaluated by the method mentioned in (A) of Example 1. Cross-sectional pictures of the skin to which each of the samples was applied are shown in FIG. 6 together with the cross-sectional picture of the skin to which nothing was applied.

Structure (SMILES)	dermal regeneration enhancing action
CC(C)CCCC(C)CCCC(C)CCCCC(C)CCCC(C)CCCC(C)C (centres unmarked) [oil, squalane]	no dermal regeneration enhancing action was noted
OCC(O)CO [polyhydric alcohol, glycerol]	no dermal regeneration enhancing action was noted
